Test results taken from patent US12043870B2, “Methods and compositions for detecting and modulating an immunotherapy resistance gene signature in cancer” (The Broad Institute, Inc., priority 2017, dated 2024).
“And” between values parts separate entries of the source, which are not always exact repeats. Identical values can stand only once.

Legend:
[1] = test system: melanoma cells; assay: Measurement of 40 human cytokines/chemokines in conditioned media of abemaciclib or DMSO treated cancer cells
[2] = test system: human melanoma cells (Melanoma cell line 2686); assay: Abemaciclib doubling time and cytostatic effect; type: cell-based; conditions: abemaciclib 500 nM
Experimental: Cell number and viability were determined using the Countess™ II FL Automated Cell Counter (ThermoFisher) on days 2, 4 and 6. All experiments were performed in triplicates. Cell doubling per 24 hours was determined based on cell numbers comparing cells seeded and on day 6 using the following formula: duration (in days) x log(2)/log(final cell number) - log(initial cell number).

[3] = test system: IGR37; assay: scRNA-seq of melanoma cell line before and after treatment with abemaciclib for 1 week; type: cell-based, human; conditions: IGR37 (RB1-sufficient); abemaciclib 1 week; 10% prior to treatment
Description: (§1) To determine this effect in melanoma, Applicants identified melanoma cell lines in the Cancer Cell Line Encyclopedia (CCLE) with the strongest expression of the uICR signature, including IGR37, UACC257 (both RB-sufficient) and A2058 (RB-deficient). Applicants performed scRNA-seq on these cell lines before and after treatment with abemaciclib for 1 week (FIG. 41). In both IGR37 and UACC257, Applicants saw a decrease in the expression of the uICR state (P<3.59*10^−34, one-sided t-test). […] This population decreased from 10% before treatment (2,454 cells) to 2% in the post-treatment condition (1,570 cells).
(§2) To test this hypothesis, Applicants studied the effect of abemaciclib on the immune resistance program in melanoma cell lines. […] Applicants profiled each cell line with scRNA-seq before and after treatment with abemaciclib for 1 week (FIGS. 49D-E), analyzing over 23,000 cells in these and follow-up conditions (below). […]
(§3) Established melanoma cell lines […] and A2058 were acquired from the Cancer Cell Line Encyclopedia (CCLE) from the Broad Institute. […] Cells were lifted off culture dishes using Versene solution (Life Technologies), washed twice in 1×PBS, counted and resuspended in PBS supplemented with 0.04% BSA for loading for scRNA-seq with the 10X Genomics platform.

[4] = test system: UACC257; assay: as above; type: cell-based, human; conditions: UACC257 (RB1-sufficient); abemaciclib 1 week; 10% prior to treatment
Description: as §1, §2, §3

CCN1CCN(Cc2ccc(Nc3ncc(F)c(-c4cc(F)c5nc(C)n(C(C)C)c5c4)n3)nc2)CC1 [abemaciclib]
Fold change (abemaciclib vs. DMSO treatment) ([1]; Hu 6Ckine/CCL21): 0.9700
Fold change (abemaciclib vs. DMSO treatment) ([1]; Hu CTACK/CCL27): 1.0834
Fold change (abemaciclib vs. DMSO treatment) ([1]; Hu ENA-78/CXCL5): 1.0188
Fold change (abemaciclib vs. DMSO treatment) ([1]; Hu Eotaxin-3/CCL26): 3.0279
Fold change (abemaciclib vs. DMSO treatment) ([1]; Hu Eotaxin/CCL11): 0.9599
Fold change (abemaciclib vs. DMSO treatment) ([1]; Hu Fractalkine/CX3CL1): 2.1863
Fold change (abemaciclib vs. DMSO treatment) ([1]; Hu GCP-2/CXCL6): 0.6386
Fold change (abemaciclib vs. DMSO treatment) ([1]; Hu GM-CSF): 1.0191
Fold change (abemaciclib vs. DMSO treatment) ([1]; Hu Gro-a/CXCL1): 0.9135
Fold change (abemaciclib vs. DMSO treatment) ([1]; Hu Gro-b/CXCL2): 0.7471
Fold change (abemaciclib vs. DMSO treatment) ([1]; Hu I-309/CCL1): 1.0389
Fold change (abemaciclib vs. DMSO treatment) ([1]; Hu I-TAC/CXCL11): 0.9524
Fold change (abemaciclib vs. DMSO treatment) ([1]; Hu IL-1b): 1.0719
Fold change (abemaciclib vs. DMSO treatment) ([1]; Hu IL-2): 0.5882
Fold change (abemaciclib vs. DMSO treatment) ([1]; Hu IL-4): 1.6605
Fold change (abemaciclib vs. DMSO treatment) ([1]; Hu IL-6): 0.3788
Fold change (abemaciclib vs. DMSO treatment) ([1]; Hu IL-8): 0.7253
Fold change (abemaciclib vs. DMSO treatment) ([1]; Hu IL-10): 1.0079
Fold change (abemaciclib vs. DMSO treatment) ([1]; Hu IL-16): 0.8482
Fold change (abemaciclib vs. DMSO treatment) ([1]; Hu IP-10/CXCL10): 0.9103
Fold change (abemaciclib vs. DMSO treatment) ([1]; Hu MCP-1/CCL2): 0.7175
Fold change (abemaciclib vs. DMSO treatment) ([1]; Hu MCP-2/CCL8): 1.0388
Fold change (abemaciclib vs. DMSO treatment) ([1]; Hu MCP-3/CCL7): 1.0422
Fold change (abemaciclib vs. DMSO treatment) ([1]; Hu MCP-4/CCL13): 0.8887
Fold change (abemaciclib vs. DMSO treatment) ([1]; Hu MDC/CCL22): 1.1142
Fold change (abemaciclib vs. DMSO treatment) ([1]; Hu MIF): 2.9587
Fold change (abemaciclib vs. DMSO treatment) ([1]; Hu MIP-1a/CCL3): 1.0350
Fold change (abemaciclib vs. DMSO treatment) ([1]; Hu MIP-3a/CCL20): 3.4000
Fold change (abemaciclib vs. DMSO treatment) ([1]; Hu MIP-3b/CCL19): 0.8717
Fold change (abemaciclib vs. DMSO treatment) ([1]; Hu MIP-1d/CCL15): 1.0809
Fold change (abemaciclib vs. DMSO treatment) ([1]; Hu SCYB16/CXCL16): 1.1278
Fold change (abemaciclib vs. DMSO treatment) ([1]; Hu SDF1a + b/CXCL12): 0.8885
Fold change (abemaciclib vs. DMSO treatment) ([1]; Hu TARC/CCL17): 1.0104
Fold change (abemaciclib vs. DMSO treatment) ([1]; Hu TECK/CCL25): 1.5510
Fold change (abemaciclib vs. DMSO treatment) ([1]; Hu TNF-a): 0.7465
cytotoxic effects [2]: do not find significant cytotoxic effects
rate of proliferation ([2]; DMSO 0.64): 0.3 doublings/24 hrs
fraction of cells with exceptionally strong expression of the immune resistance (uICR) program ("immune resistant" cells) post-treatment [3]: 2%
fraction of cells with exceptionally strong expression of the immune resistance program ("immune resistant" cells) post-treatment [4]: 1% and 0.6%
